According to article PMC9768162, “Synthesis of macrocyclic nucleoside antibacterials and their interactions with MraY” (Nature Communications, 2022):
In brackets after ≈: the same amount, converted by molar mass. Where two headings read alike, the source gives them in different places.

What was measured:
Assay in all cases: Antibacterial activity, MIC by microdilution broth method (CLSI)
[1] = system: E. faecium; assay type: cell-based, Enterococcus faecium
[2] = system: S. aureus; assay type: cell-based, Staphylococcus aureus; conditions: for MIC: Staphylococcus aureus; for MIC (range over strains): clinically isolated MRSA (10 strains)
[3] = system: E. faecalis; assay type: cell-based; conditions: for MIC: Enterococcus faecalis; for MIC (range over strains): clinically isolated E. faecalis (15 strains)
[4] = Enterococcus faecium, ATCC35667, 20 h, E. faecium ATCC 35667, CA-MHB, 37 °C, 20 h, read-out: MIC
[5] = Enterococcus faecium, clinically isolated E. faecium strain 7, read-out: MIC
[6] = ATCC29213, 20 h, S. aureus ATCC 29213, CA-MHB, 37 °C, 20 h
[7] = MRSA, 20 h, S. aureus (MRSA) JE2, CA-MHB, 37 °C, performed once
[8] = MRSA, clinically isolated MRSA #1958
[9] = MRSA, clinically isolated MRSA #2071
[10] = MRSA, clinically isolated MRSA #2110
[11] = MRSA, clinically isolated MRSA #2310
[12] = MRSA, clinically isolated MRSA #2334
[13] = MRSA, clinically isolated MRSA #2931
[14] = MRSA, clinically isolated MRSA #2932
[15] = MRSA, clinically isolated MRSA #2933
[16] = MRSA, clinically isolated MRSA #2934
[17] = MRSA, clinically isolated MRSA #2935
[18] = ATCC 51299 / VRE, E. faecalis (VRE) ATCC 51299
[19] = clinically isolated E. faecalis strain 21
[20] = clinically isolated E. faecalis strain 22
[21] = clinically isolated E. faecalis strain 23
[22] = clinically isolated E. faecalis strain 24
[23] = clinically isolated E. faecalis strain 25
[24] = clinically isolated E. faecalis strain 26
[25] = clinically isolated E. faecalis strain 27
[26] = clinically isolated E. faecalis strain 28
[27] = clinically isolated E. faecalis strain 29
[28] = clinically isolated E. faecalis strain 30
[29] = clinically isolated E. faecalis strain 31
[30] = clinically isolated E. faecalis strain 32
[31] = clinically isolated E. faecalis strain 33
[32] = clinically isolated E. faecalis strain 34
[33] = clinically isolated E. faecalis strain 35
[34] = Enterococcus faecium, ATCC 51559 / VRE, E. faecium (VRE) ATCC 51559, read-out: MIC
[35] = Enterococcus faecium, ATCC 51858 / VRE, E. faecium (VRE) ATCC 51858, read-out: MIC
[36] = Enterococcus faecium, clinically isolated E. faecium strain 1, read-out: MIC
[37] = Enterococcus faecium, clinically isolated E. faecium strain 2, read-out: MIC
[38] = Enterococcus faecium, clinically isolated E. faecium strain 3, read-out: MIC
[39] = Enterococcus faecium, clinically isolated E. faecium strain 4, read-out: MIC
[40] = Enterococcus faecium, clinically isolated E. faecium strain 5, read-out: MIC
[41] = Enterococcus faecium, clinically isolated E. faecium strain 8, read-out: MIC
[42] = Enterococcus faecium, clinically isolated E. faecium strain 9, read-out: MIC
[43] = Enterococcus faecium, clinically isolated E. faecium strain 10, read-out: MIC
[44] = Enterococcus faecium, clinically isolated E. faecium strain 11, read-out: MIC
[45] = Enterococcus faecium, clinically isolated E. faecium strain 13, read-out: MIC
[46] = Enterococcus faecium, clinically isolated E. faecium strain 14, read-out: MIC
[47] = Enterococcus faecium, clinically isolated E. faecium strain 15, read-out: MIC

CC1(C)S[C@@H]2[C@H](NC(=O)[C@H](N)c3ccccc3)C(=O)N2[C@H]1C(=O)O [Ampicillin]
MIC [1, 4]: 1 µg/mL (≈ 2.86 µM) | MIC ([1]; Enterococcus faecium, ATCC 51559 / VRE, E. faecium (VRE) ATCC 51559): 128 µg/mL (≈ 366 µM) | MIC ([1]; Enterococcus faecium, ATCC 51858 / VRE, E. faecium (VRE) ATCC 51858): 128 µg/mL (≈ 366 µM) | MIC ([1]; Enterococcus faecium, clinically isolated E. faecium strain 1): > 128 µg/mL | MIC ([1]; Enterococcus faecium, clinically isolated E. faecium strain 2): 128 µg/mL (≈ 366 µM) | MIC ([1]; Enterococcus faecium, clinically isolated E. faecium strain 3): > 128 µg/mL | MIC ([1]; Enterococcus faecium, clinically isolated E. faecium strain 4): 128 µg/mL (≈ 366 µM) | MIC ([1]; Enterococcus faecium, clinically isolated E. faecium strain 5): 128 µg/mL (≈ 366 µM) | MIC [1, 5]: 0.5 µg/mL (≈ 1.43 µM) | MIC ([1]; Enterococcus faecium, clinically isolated E. faecium strain 8): 128 µg/mL (≈ 366 µM) | MIC ([1]; Enterococcus faecium, clinically isolated E. faecium strain 9): > 128 µg/mL | MIC ([1]; Enterococcus faecium, clinically isolated E. faecium strain 10): > 128 µg/mL | MIC ([1]; Enterococcus faecium, clinically isolated E. faecium strain 11): 128 µg/mL (≈ 366 µM) | MIC ([1]; Enterococcus faecium, clinically isolated E. faecium strain 13): > 128 µg/mL | MIC ([1]; Enterococcus faecium, clinically isolated E. faecium strain 14): 128 µg/mL (≈ 366 µM) | MIC ([1]; Enterococcus faecium, clinically isolated E. faecium strain 15): 128 µg/mL (≈ 366 µM) | MIC [2, 6]: 1 µg/mL (≈ 2.86 µM) | MIC [2, 7]: 4 µg/mL (≈ 11.4 µM) | MIC [2, 8]: 32 µg/mL (≈ 91.6 µM) | MIC [2, 9]: 32 µg/mL (≈ 91.6 µM) | MIC [2, 10]: 16 µg/mL (≈ 45.8 µM) | MIC [2, 11]: 32 µg/mL (≈ 91.6 µM) | MIC [2, 12]: 16 µg/mL (≈ 45.8 µM) | MIC [2, 13]: 32 µg/mL (≈ 91.6 µM) | MIC [2, 14]: 32 µg/mL (≈ 91.6 µM) | MIC [2, 15]: 32 µg/mL (≈ 91.6 µM) | MIC [2, 16]: 16 µg/mL (≈ 45.8 µM) | MIC [2, 17]: 16 µg/mL (≈ 45.8 µM) | MIC (range over strains) [2]: 16 to 32 µg/mL | MIC [3, 18]: 1 µg/mL (≈ 2.86 µM) | MIC [3, 19]: 1 µg/mL (≈ 2.86 µM) | MIC [3, 20]: 1 µg/mL (≈ 2.86 µM) | MIC [3, 21]: 1 µg/mL (≈ 2.86 µM) | MIC [3, 22]: 0.5 µg/mL (≈ 1.43 µM) | MIC [3, 23]: 1 µg/mL (≈ 2.86 µM) | MIC [3, 24]: 1 µg/mL (≈ 2.86 µM) | MIC [3, 25]: 1 µg/mL (≈ 2.86 µM) | MIC [3, 26]: 1 µg/mL (≈ 2.86 µM) | MIC [3, 27]: 1 µg/mL (≈ 2.86 µM) | MIC [3, 28]: 0.5 µg/mL (≈ 1.43 µM) | MIC [3, 29]: 1 µg/mL (≈ 2.86 µM) | MIC [3, 30]: 1 µg/mL (≈ 2.86 µM) | MIC [3, 31]: 1 µg/mL (≈ 2.86 µM) | MIC [3, 32]: 1 µg/mL (≈ 2.86 µM) | MIC [3, 33]: 0.5 µg/mL (≈ 1.43 µM) | MIC (range over strains) [3]: 0.5 to 1 µg/mL

C[C@H]1COc2c(N3CCN(C)CC3)c(F)cc3c(=O)c(C(=O)O)cn1c23 [Levofloxacin]
MIC [1, 4]: 4 µg/mL (≈ 11.1 µM) | MIC [1, 34]: 16 µg/mL (≈ 44.3 µM) | MIC [1, 35]: 4 µg/mL (≈ 11.1 µM) | MIC [1, 36]: > 32 µg/mL | MIC [1, 37]: > 32 µg/mL | MIC [1, 38]: > 32 µg/mL | MIC [1, 39]: > 32 µg/mL | MIC [1, 40]: 32 µg/mL (≈ 88.6 µM) | MIC [1, 5]: 0.5 µg/mL (≈ 1.38 µM) | MIC [1, 41]: > 32 µg/mL | MIC [1, 42]: > 32 µg/mL | MIC [1, 43]: > 32 µg/mL | MIC [1, 44]: > 32 µg/mL | MIC [1, 45]: > 32 µg/mL | MIC [1, 46]: > 32 µg/mL | MIC [1, 47]: > 32 µg/mL | MIC [2, 6]: 0.13 µg/mL (≈ 0.36 µM) | MIC [2, 7]: 8 µg/mL (≈ 22.1 µM) | MIC [2, 8]: > 32 µg/mL | MIC [2, 9]: 0.13 µg/mL (≈ 0.36 µM) | MIC [2, 10]: > 32 µg/mL | MIC [2, 11]: > 32 µg/mL | MIC [2, 12]: > 32 µg/mL | MIC [2, 13]: 16 µg/mL (≈ 44.3 µM) | MIC [2, 14]: > 32 µg/mL | MIC [2, 15]: > 32 µg/mL | MIC [2, 16]: > 32 µg/mL | MIC [2, 17]: > 32 µg/mL | MIC [3, 18]: 1 µg/mL (≈ 2.77 µM) | MIC [3, 19]: 0.5 µg/mL (≈ 1.38 µM) | MIC [3, 20]: 1 µg/mL (≈ 2.77 µM) | MIC [3, 21]: 1 µg/mL (≈ 2.77 µM) | MIC [3, 22]: 1 µg/mL (≈ 2.77 µM) | MIC [3, 23]: 0.5 µg/mL (≈ 1.38 µM) | MIC [3, 24]: 0.5 µg/mL (≈ 1.38 µM) | MIC [3, 25]: 1 µg/mL (≈ 2.77 µM) | MIC [3, 26]: 1 µg/mL (≈ 2.77 µM) | MIC [3, 27]: 0.5 µg/mL (≈ 1.38 µM) | MIC [3, 28]: 1 µg/mL (≈ 2.77 µM) | MIC [3, 29]: 1 µg/mL (≈ 2.77 µM) | MIC [3, 30]: 1 µg/mL (≈ 2.77 µM) | MIC [3, 31]: 1 µg/mL (≈ 2.77 µM) | MIC [3, 32]: 1 µg/mL (≈ 2.77 µM) | MIC [3, 33]: 2 µg/mL (≈ 5.53 µM) | MIC (range over strains) [3]: 0.5 to 2 µg/mL

CN[C@H](CC(C)C)C(=O)N[C@H]1C(=O)N[C@@H](CC(N)=O)C(=O)N[C@H]2C(=O)N[C@H]3C(=O)N[C@H](C(=O)N[C@H](C(=O)O)c4cc(O)cc(O)c4-c4cc3ccc4O)[C@H](O)c3ccc(c(Cl)c3)Oc3cc2cc(c3O[C@@H]2O[C@H](CO)[C@@H](O)[C@H](O)[C@H]2O[C@H]2C[C@](C)(N)[C@H](O)[C@H](C)O2)Oc2ccc(cc2Cl)[C@H]1O [Vancomycin]
MIC ([1]; E. faecium (VRE) ATCC 51559): >128 µg/mL | MIC [1, 4]: 0.5 µg/mL (≈ 0.345 µM) | MIC [1, 34]: > 128 µg/mL | MIC [1, 35]: 128 µg/mL (≈ 88.3 µM) | MIC [1, 36]: 1 µg/mL (≈ 0.69 µM) | MIC [1, 37]: 1 µg/mL (≈ 0.69 µM) | MIC [1, 38]: 1 µg/mL (≈ 0.69 µM) | MIC [1, 39]: 1 µg/mL (≈ 0.69 µM) | MIC [1, 40]: 1 µg/mL (≈ 0.69 µM) | MIC [1, 5]: 0.5 µg/mL (≈ 0.345 µM) | MIC [1, 41]: 1 µg/mL (≈ 0.69 µM) | MIC [1, 42]: 1 µg/mL (≈ 0.69 µM) | MIC [1, 43]: 1 µg/mL (≈ 0.69 µM) | MIC [1, 44]: 1 µg/mL (≈ 0.69 µM) | MIC [1, 45]: 1 µg/mL (≈ 0.69 µM) | MIC [1, 46]: 0.5 µg/mL (≈ 0.345 µM) | MIC [1, 47]: 1 µg/mL (≈ 0.69 µM) | MIC (range over strains) ([1]; clinically isolated E. faecium (14 strains)): 0.5 to 1 µg/mL | MIC [2, 6]: 1 µg/mL (≈ 0.69 µM) | MIC [2, 7]: 1 µg/mL (≈ 0.69 µM) | MIC [2, 8]: 1 µg/mL (≈ 0.69 µM) | MIC [2, 9]: 1 µg/mL (≈ 0.69 µM) | MIC [2, 10]: 2 µg/mL (≈ 1.38 µM) | MIC [2, 11]: 2 µg/mL (≈ 1.38 µM) | MIC [2, 12]: 2 µg/mL (≈ 1.38 µM) | MIC [2, 13]: 1 µg/mL (≈ 0.69 µM) | MIC [2, 14]: 2 µg/mL (≈ 1.38 µM) | MIC [2, 15]: 1 µg/mL (≈ 0.69 µM) | MIC [2, 16]: 1 µg/mL (≈ 0.69 µM) | MIC [2, 17]: 2 µg/mL (≈ 1.38 µM) | MIC (range over strains) [2]: 1 to 2 µg/mL | MIC [3, 18]: 128 µg/mL (≈ 88.3 µM) | MIC [3, 19]: 1 µg/mL (≈ 0.69 µM) | MIC [3, 20]: 1 µg/mL (≈ 0.69 µM) | MIC [3, 21]: 1 µg/mL (≈ 0.69 µM) | MIC [3, 22]: 1 µg/mL (≈ 0.69 µM) | MIC [3, 23]: 1 µg/mL (≈ 0.69 µM) | MIC [3, 24]: 1 µg/mL (≈ 0.69 µM) | MIC [3, 25]: 1 µg/mL (≈ 0.69 µM) | MIC [3, 26]: 1 µg/mL (≈ 0.69 µM) | MIC [3, 27]: 1 µg/mL (≈ 0.69 µM) | MIC [3, 28]: 1 µg/mL (≈ 0.69 µM) | MIC [3, 29]: 4 µg/mL (≈ 2.76 µM) | MIC [3, 30]: 1 µg/mL (≈ 0.69 µM) | MIC [3, 31]: 2 µg/mL (≈ 1.38 µM) | MIC [3, 32]: 1 µg/mL (≈ 0.69 µM) | MIC [3, 33]: 1 µg/mL (≈ 0.69 µM) | MIC (range over strains) [3]: 1 to 4 µg/mL
